Values quoted from earlier work, collected in patent US6511683B1, “Enchinacea supplement and method of manufacture” (Factors R & D Technologies Ltd., priority 1999, dated 2003).

Key:
immune system = conditions: Awang et al.
granulocytes = conditions: Awang et al.

Structure (SMILES): O=C(/C=C/c1ccc(O)c(O)c1)O[C@@H](C(=O)O)[C@@H](OC(=O)/C=C/c1ccc(O)c(O)c1)C(=O)O [cichoric acid, 2,3-o-di-caffeoyl-tartaric acid]
- concentration that may stimulate the immune system (immune system): ≥ 0.01 ppm
- phagocytosis in granulocytes (granulocytes): increase
